Laboratory results as given in patent publication US20070185184A1, “Carbazole derivatives” (Serenex, Inc., priority 2005, published 2007).

Key:
[1] = tested on: PC-3 cell proliferation; experiment: Cell proliferation assay (Cyquant DNA assay); type: cell-based; settings: Homo sapiens; PC-3 cells, 2-5 days incubation, vs DMSO (100%) and 10 μM Actinomycin D (0%); read-out: inhibitory activities against PC-3 cell proliferation (IC50 range)
Experimental: A panel of cancer cell lines is obtained from the DCTP Tumor Repository, National Cancer Institute (Frederick, Md.) or ATCC (Rockville, Md.). Cell cultures are maintained in Hyclone RPMI 1640 medium (Logan, Utah) supplemented with 10% fetal bovine serum and 20 mM HEPES buffer, final pH 7.2, at 37° C. with a 5% CO2 atmosphere. Cultures are maintained at sub-confluent densities.
For proliferation assays, cells are seeded with the appropriate medium into 96 well plates at 1,000-2,500 cells per well, depending on the cell line, and are incubated overnight. The following day, test compound, DMSO solution (negative control), or Actinomycin D (positive control) is added to the appropriate wells as 10× concentrated stocks prepared in phosphate buffered saline. The cell plates where then incubated for an additional 2-5 days, depending on the cell line, to allow proliferation to occur. To measure cell density, growth medium is removed from the adherent cell lines, and the plates stored at −80° C. Using these assay plates, relative amounts of DNA in each well is determined using the Cyquant DNA assay kit from […] (Eugene, Oreg.) following the manufacturer's directions. Results for each compound treatment are compared to DMSO vehicle control (100%) and 10 μM Actinomycin D treated cells (0%).

[2] = tested on: cell cycle progression in M-phase; experiment: Analysis of cell cycle status: M-phase block (phospho-Histone 3 serine 10, ArrayScan); type: cell-based; settings: 5 hours incubation; vs 500 nM vinblastine (100% M-phase block) and DMSO (0%); read-out: M-phase block activities (IC50 range)
Experimental: Cells are seeded onto 96-well Packard View plates and incubated overnight. Test compounds are added to individual wells the following day at 10× concentrations and the plates returned to the incubator.
For identification of compounds that blocked cell cycle progression in M-phase, cells are incubated with compounds for 5 hours. After incubation, the cell growth media is removed and the cell monolayers are fixed with 3.7% formaldehyde, followed by treatment with 0.1% Triton X-100, and probed with a monoclonal phospho-specific Histone 3 serine 10 antibody. Bound primary antibody is detected with a FITC or TRITC conjugated secondary antibody. The cellular DNA is stained using Hoechst dye. Fixed cells are visualized using an ArrayScan 4.5 HCS plate reader. Cells positive for antibody binding are identified and quantified using the Target Activation Algorithm. IC50 Data from test compounds is generated by comparing test compound activity to the percentage of cells in M-phase detected in 500 nM vinblastine treated cells (100% M-phase block), and the percentage of M-phase cells detected in the DMSO control treated cells (0% M-phase block).

Row | SMILES | IC50 [1] [nM] | IC50 [2] [nM]
1 | NC(=O)c1ccc(-n2c3c(c4ccccc42)C(=O)CCC3)c(Cl)c1 [Compound 2, 3-Chloro-4-(4-oxo-1,2,3,4-tetrahydro-carbazol-9-yl)benzamide] | < 500 | 
2 | NC(=O)c1ccc(-n2c3c(c4ccccc42)/C(=N/O)CCC3)c(Br)c1 [Compound 4, 3-Bromo-4-(4-hydroxyimino-1,2,3,4-tetrahydro-carbazol-9-yl)benzamide] | 500 to 5000 | 
3 | NC(=S)c1ccc(-n2c3c(c4ccccc42)C(=O)CCC3)c(Br)c1 [Compound 5, 3-Bromo-4-(4-oxo-1,2,3,4-tetrahydro-carbazol-9-yl)thiobenzamide] | < 500 | 
4 | CC(=O)c1cn(-c2ccc(C(N)=O)cc2Cl)c2ccccc12 [Compound 6, 4-(3-Acetyl-indol-1-yl)-3-chloro-benzamide] | < 500 | 
5 | C/C(=N\O)c1cn(-c2ccc(C(N)=O)cc2Cl)c2ccccc12 [Compound 7, 4-(3-(1-hydroxyimino-ethyl)-indol-1-yl)-3-chloro-benzamide] | < 500 | 
6 | COCCNc1ccc(-n2c3c(c4ccccc42)C(=O)CCC3)c(C(F)(F)F)c1 [Compound 10, 9-[4-(2-methoxy-ethylamino)-2-trifluoromethyl-phenyl]-1,2,3,9-tetrahydro-carbazol-4-one] | 500 to 5000 | 
7 | NC(=O)Nc1ccc(-n2c3c(c4ccccc42)C(=O)CCC3)c(Cl)c1 [Compound 13, 1-(3-chloro-4-(4-oxo-3,4-dihydro-1H-carbazol-9(2H)-yl)phenyl)urea] | < 500 | 
8 | NC(=O)c1ccc(C(F)(F)F)c(-n2c3c(c4ccccc42)C(=O)CCC3)c1 [Compound 14, 3-(4-Oxo-1,2,3,4-tetrahydro-carbazol-9-yl)-4-trifluoromethyl-benzamide] | 5000 to 50000 | 
9 | CC(=O)c1cn(-c2ccc(NC(N)=O)cc2Cl)c2ccc(Cl)cc12 [Compound 17, [4-(3-Acetyl-5-chloro-indol-1-yl)-3-chloro-phenyl]-urea] |  | 500 to 5000
10 | CC(=O)c1cn(-c2ccc(N)cc2Cl)c2cc(Cl)ccc12 [Compound 18, 1-[1-(4-Amino-2-chloro-phenyl)-6-chloro-1H-indol-3-yl]-ethanone] |  | 500 to 5000
11 | C=CCNc1cc(-n2c3c(c4ccccc42)C(=O)CCC3)ccc1C(N)=O [Compound 20, 2-Allylamino-4-(4-oxo-1,2,3,4-tetrahydro-carbazol-9-yl)-benzamide] | 500 to 5000 | 
12 | NC(=O)c1ccc(-n2c3c(c4ccccc42)C(=O)NCC3)c(Cl)c1 [Compound 22, 3-Chloro-4-(1-oxo-1,2,3,4-tetrahydro-pyrido[4,3-b]indol-5-yl)-benzamide] | 500 to 5000 | 
13 | NC(=O)c1ccc(-n2c3c(c4ccccc42)C(=O)CCC3)c(C(F)(F)F)c1 [Compound 29, 4-(4-Oxo-1,2,3,4-tetrahydro-carbazol-9-yl)-3-trifluoromethyl-benzamide] |  | < 500
14 | COCCNc1cc(-n2cc(C(C)=O)c3ccccc32)ccc1C(N)=O [Compound 35, 4-(3-Acetyl-indol-1-yl)-2-(2-methoxy-ethylamino)-benzamide] |  | 500 to 5000

Results, then the compound that gave them:

Row | IC50 [1] [nM] | IC50 [2] [nM] | SMILES
15 |  | 5000 to 50000 | CC(=O)c1cn(-c2ccc(N)cc2Br)c2ccccc12 [Compound 37, 1-[1-(4-Amino-2-bromo-phenyl)-1H-indol-3-yl]-ethanone]
16 |  | 500 to 5000 | C=CCNc1ccc(-n2c3c(c4ccccc42)C(=O)CCC3)c(C(F)(F)F)c1 [Compound 38, 9-(4-Allylamino-2-trifluoromethyl-phenyl)-1,2,3,9-tetrahydro-carbazol-4-one]
17 |  | < 500 | CC(=O)NC(=O)Nc1ccc(-n2c3c(c4ccccc42)C(=O)CCC3)c(Cl)c1 [Compound 40, 1-Acetyl-3-[3-chloro-4-(4-oxo-1,2,3,4-tetrahydro-carbazol-9-yl)-phenyl]-urea]
18 |  | < 500 | NC(=O)Nc1ccc(-n2c3c(c4cc(Cl)ccc42)C(=O)CCC3)c(Cl)c1 [Compound 41, [3-Chloro-4-(6-chloro-4-oxo-1,2,3,4-tetrahydro-carbazol-9-yl)-phenyl]-urea]
19 |  | < 500 | COc1cc(-n2cc(C(C)=O)c3ccccc32)ccc1C(N)=O [Compound 43, 4-(3-Acetyl-indol-1-yl)-2-methoxy-benzamide]
20 |  | < 500 | CC(=O)c1cn(-c2ccc(C(N)=O)cc2Cl)c2cc(Cl)ccc12 [Compound 44, 4-(3-Acetyl-6-chloro-indol-1-yl)-3-chloro-benzamide]
